Measurements: patent US9663508B2, “Biaryl acyl-sulfonamide compounds as sodium channel inhibitors” (AMGEN INC., priority 2013, dated 2017)
pIC50: −log10 of the molar value. Like-named read-outs stand apart in the source and are kept apart here.

What was measured:
human Nav1.7 = human Nav1.7 (Homo sapiens (Human), UniProt Q15858); test: Nav 1.7 in vitro PatchXpress (PX) assay; assay type: cell-based
Procedure: HEK 293 cells stably transfected with human Nav1.7 were recorded in whole cell voltage clamp mode with the PatchXpress automated electrophysiology system (Molecular Devices, LLC, Sunnyvale, Calif.). Compound effects were measured on a partially inactivated state of the sodium channel. Cells were clamped to a holding potential yielding 20 to 50% inactivation. To elicit sodium current, channels were activated by pulsing to −10 mV for 20 msec. This voltage protocol was repeated at a rate of 0.1 Hz throughout the experiment. A single concentration of test compound was applied to cells for a duration of 3 minutes. Peak sodium current was measured at the end of the compound addition period to determine percent inhibition. Three to five cells were tested per concentration, and IC50 curves were fitted to percent inhibition as a function of concentration.

human Nav 1.5 = human Nav 1.5 (Homo sapiens (Human), UniProt Q14524); test: Nav 1.5 IonWorks Quattro (IWQ) in vitro assay; assay type: cell-based
human Nav 1.5, sequence (Q14524 whole entry): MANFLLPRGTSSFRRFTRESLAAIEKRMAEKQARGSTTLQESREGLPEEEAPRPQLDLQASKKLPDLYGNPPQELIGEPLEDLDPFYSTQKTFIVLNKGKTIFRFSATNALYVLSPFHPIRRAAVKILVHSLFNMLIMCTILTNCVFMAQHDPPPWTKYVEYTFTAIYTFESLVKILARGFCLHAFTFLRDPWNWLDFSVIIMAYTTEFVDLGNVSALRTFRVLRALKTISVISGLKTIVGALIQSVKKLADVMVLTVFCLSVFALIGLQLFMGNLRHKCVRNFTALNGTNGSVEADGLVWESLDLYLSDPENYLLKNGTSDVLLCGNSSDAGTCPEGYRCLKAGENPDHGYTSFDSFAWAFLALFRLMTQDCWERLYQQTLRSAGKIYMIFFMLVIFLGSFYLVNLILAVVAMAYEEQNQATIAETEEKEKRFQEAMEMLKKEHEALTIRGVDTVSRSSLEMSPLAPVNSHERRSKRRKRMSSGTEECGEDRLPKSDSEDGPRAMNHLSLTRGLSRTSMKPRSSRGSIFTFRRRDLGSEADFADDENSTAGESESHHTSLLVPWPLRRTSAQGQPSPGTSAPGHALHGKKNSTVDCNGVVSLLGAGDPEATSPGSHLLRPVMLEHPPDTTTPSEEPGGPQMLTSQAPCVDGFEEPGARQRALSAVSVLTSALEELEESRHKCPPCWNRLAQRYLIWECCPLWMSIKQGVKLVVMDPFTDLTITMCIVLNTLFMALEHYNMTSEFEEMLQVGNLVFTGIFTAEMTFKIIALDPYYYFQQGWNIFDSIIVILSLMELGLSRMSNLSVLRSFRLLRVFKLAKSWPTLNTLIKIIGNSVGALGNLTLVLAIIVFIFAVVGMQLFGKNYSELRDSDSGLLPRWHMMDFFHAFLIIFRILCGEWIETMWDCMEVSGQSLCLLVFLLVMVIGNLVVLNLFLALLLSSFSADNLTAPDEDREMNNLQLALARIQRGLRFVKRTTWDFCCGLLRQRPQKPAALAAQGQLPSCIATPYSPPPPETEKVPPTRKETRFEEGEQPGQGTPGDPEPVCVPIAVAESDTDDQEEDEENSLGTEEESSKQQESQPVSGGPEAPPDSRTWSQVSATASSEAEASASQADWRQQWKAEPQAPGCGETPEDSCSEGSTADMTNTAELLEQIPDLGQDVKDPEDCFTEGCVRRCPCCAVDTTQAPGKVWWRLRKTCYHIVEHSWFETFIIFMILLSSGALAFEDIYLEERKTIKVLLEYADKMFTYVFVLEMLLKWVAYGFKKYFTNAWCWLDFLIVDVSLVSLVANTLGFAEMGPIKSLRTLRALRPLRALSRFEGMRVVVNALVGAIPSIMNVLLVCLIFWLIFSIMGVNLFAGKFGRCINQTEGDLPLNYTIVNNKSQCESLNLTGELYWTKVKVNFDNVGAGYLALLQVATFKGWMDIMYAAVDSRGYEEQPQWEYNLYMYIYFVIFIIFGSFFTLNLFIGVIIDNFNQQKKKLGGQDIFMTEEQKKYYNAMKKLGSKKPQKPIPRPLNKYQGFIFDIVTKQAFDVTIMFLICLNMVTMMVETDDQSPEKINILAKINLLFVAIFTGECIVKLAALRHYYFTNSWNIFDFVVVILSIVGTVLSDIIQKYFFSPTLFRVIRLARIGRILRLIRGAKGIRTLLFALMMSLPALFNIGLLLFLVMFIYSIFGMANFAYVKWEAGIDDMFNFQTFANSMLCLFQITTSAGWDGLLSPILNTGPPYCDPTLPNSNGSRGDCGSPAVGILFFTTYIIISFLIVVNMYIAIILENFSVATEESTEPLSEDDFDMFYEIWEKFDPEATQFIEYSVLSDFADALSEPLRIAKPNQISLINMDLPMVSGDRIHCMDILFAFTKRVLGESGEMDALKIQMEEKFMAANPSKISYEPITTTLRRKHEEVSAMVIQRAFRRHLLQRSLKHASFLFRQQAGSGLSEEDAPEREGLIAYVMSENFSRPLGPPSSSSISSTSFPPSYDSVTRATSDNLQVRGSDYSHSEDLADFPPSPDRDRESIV

human Nav1.7, sequence (Q15858 whole entry): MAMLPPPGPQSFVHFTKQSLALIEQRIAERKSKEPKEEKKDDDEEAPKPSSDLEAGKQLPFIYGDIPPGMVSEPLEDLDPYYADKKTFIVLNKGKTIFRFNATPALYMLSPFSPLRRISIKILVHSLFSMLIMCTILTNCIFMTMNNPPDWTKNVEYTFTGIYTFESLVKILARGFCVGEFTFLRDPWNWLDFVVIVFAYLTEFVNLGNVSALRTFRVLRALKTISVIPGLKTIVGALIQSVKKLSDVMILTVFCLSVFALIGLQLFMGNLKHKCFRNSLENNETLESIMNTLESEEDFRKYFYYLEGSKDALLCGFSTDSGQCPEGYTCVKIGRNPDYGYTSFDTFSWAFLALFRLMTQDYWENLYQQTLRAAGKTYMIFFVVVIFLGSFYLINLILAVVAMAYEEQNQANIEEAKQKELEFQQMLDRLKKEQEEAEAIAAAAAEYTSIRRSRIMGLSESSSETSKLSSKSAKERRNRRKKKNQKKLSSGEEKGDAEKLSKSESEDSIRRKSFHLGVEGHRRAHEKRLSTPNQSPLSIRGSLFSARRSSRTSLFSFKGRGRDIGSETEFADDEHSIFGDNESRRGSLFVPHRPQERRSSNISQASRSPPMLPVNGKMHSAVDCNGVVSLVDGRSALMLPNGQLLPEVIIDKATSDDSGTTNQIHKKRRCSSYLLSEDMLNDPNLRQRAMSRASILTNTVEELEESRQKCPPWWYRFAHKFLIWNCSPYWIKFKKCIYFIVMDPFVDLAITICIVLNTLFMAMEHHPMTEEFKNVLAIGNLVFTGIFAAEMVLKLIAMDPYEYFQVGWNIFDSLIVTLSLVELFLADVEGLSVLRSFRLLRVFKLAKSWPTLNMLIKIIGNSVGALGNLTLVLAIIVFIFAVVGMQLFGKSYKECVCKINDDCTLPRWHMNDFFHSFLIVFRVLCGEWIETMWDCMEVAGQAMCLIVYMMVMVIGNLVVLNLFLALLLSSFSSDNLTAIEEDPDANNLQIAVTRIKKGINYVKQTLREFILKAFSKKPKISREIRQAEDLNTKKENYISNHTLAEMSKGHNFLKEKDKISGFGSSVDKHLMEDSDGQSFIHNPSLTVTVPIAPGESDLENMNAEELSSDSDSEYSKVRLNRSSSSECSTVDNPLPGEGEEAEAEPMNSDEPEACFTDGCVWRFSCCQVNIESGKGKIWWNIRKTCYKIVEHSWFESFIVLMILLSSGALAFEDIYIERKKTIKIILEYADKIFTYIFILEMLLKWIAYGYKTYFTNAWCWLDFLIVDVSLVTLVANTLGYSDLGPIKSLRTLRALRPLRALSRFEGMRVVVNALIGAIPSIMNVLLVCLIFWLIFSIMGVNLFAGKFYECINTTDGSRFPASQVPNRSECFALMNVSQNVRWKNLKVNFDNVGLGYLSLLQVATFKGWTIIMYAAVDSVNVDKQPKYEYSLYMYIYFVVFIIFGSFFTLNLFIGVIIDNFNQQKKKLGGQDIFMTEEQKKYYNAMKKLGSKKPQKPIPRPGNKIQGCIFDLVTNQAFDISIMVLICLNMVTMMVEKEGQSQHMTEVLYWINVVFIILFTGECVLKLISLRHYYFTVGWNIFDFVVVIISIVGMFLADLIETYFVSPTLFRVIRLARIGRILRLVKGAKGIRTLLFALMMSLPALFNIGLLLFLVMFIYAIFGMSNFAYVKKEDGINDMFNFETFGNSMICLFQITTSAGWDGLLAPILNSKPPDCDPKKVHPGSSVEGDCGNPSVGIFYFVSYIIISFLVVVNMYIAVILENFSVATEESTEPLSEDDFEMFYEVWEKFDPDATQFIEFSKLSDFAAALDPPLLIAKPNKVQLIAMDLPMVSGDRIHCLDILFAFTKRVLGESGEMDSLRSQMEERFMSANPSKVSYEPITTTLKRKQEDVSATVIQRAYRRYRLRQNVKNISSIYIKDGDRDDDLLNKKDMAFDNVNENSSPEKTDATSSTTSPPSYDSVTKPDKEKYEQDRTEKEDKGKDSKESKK

Structure (SMILES) | pIC50 (human Nav1.7) | pIC50 (human Nav 1.5; read-out: NAV 1.5 IWQ IC50) | pIC50 (human Nav 1.5) | pIC50 (human Nav1.7; in-vitro Nav 1.7 PX data) | pIC50 (human Nav 1.5; in-vitro Nav 1.5 IWQ data, read-out: NAV 1.5 IWQ (IC50))
Cc1cc(Cl)cc(Cl)c1Oc1ncc(-c2cc(F)c(C(=O)NS(C)(=O)=O)cc2F)cc1Cl [Example 567, 4-(5-chloro-6-(2,4-dichloro-6-methylphenoxy)-3-pyridinyl)-2,5-difluoro-N-(methylsulfonyl)benzamide] | 7.22 | < 5.31 |  |  | 
Cc1cc(C(=O)NS(C)(=O)=O)c(F)cc1-c1cnc(O[C@H](C)c2nc3cc(Cl)ccc3s2)c(Cl)c1 [Example 653, 4-(5-chloro-6-((1R)-1-(5-chloro-1,3-benzothiazol-2-yl)ethoxy)-3-pyridinyl)-2-fluoro-5-methyl-N-(methylsulfonyl)benzamide, 4-(5-chloro-6-((1S)-1-(5-chloro-1,3-benzothiazol-2-yl)ethoxy)-3-pyridinyl)-2-fluoro-5-methyl-N-(methylsulfonyl)benzamide] | 7.08 | < 5.52 |  |  | 
Cc1ccc(Oc2ncc(-c3cc(F)c(C(=O)NS(C)(=O)=O)cc3C)cc2Cl)c(C(C)(C)C)c1 [Example 634, 4-(6-(2-tert-butyl-4-methylphenoxy)-5-chloro-3-pyridinyl)-2-fluoro-5-methyl-N-(methylsulfonyl)benzamide] | 7.02 | < 5.52 |  |  | 
COc1cc(C(=O)NS(C)(=O)=O)ccc1-c1cnc(Oc2cc(Cl)cc(Cl)c2)c(Cl)c1 [Example 348, 4-(5-chloro-6-(3,5-dichlorophenoxy)-3-pyridinyl)-3-methoxy-N-(methylsulfonyl)benzamide] | 7.46 | 5.24 |  |  | 
Cc1cc(C(=O)NS(C)(=O)=O)c(F)cc1-c1cnc(O[C@H](C)c2c(F)cc(F)cc2F)c(Cl)c1 [Example 661, 4-(5-chloro-6-((1R)-1-(2,4,6-trifluorophenyl)ethoxy)-3-pyridinyl)-2-fluoro-5-methyl-N-(methylsulfonyl)benzamide, 4-(5-chloro-6-((1S)-1-(2,4,6-trifluorophenyl)ethoxy)-3-pyridinyl)-2-fluoro-5-methyl-N-(methylsulfonyl)benzamide] | 7.11 | < 5.00 |  |  | 
Cc1cc(C(=O)NS(C)(=O)=O)c(F)cc1-c1cnc(Oc2cc(C(F)(F)F)ccc2Cl)c(Cl)c1 [Example 642, 4-(5-chloro-6-(2-chloro-5-(trifluoromethyl)phenoxy)-3-pyridinyl)-2-fluoro-5-methyl-N-(methylsulfonyl)benzamide] | 7.15 | < 5.52 |  |  | 
Cc1cc(C(=O)NS(C)(=O)=O)c(F)cc1-c1cnc(Oc2ccccc2-c2ccccc2)c(Cl)c1 [Example 612, 4-(6-(2-biphenylyloxy)-5-chloro-3-pyridinyl)-2-fluoro-5-methyl-N-(methylsulfonyl)benzamide] | 7.05 | < 5.52 |  |  | 
Cc1cc(Cl)cc(Cl)c1Oc1ncc(-c2cc(F)c(C(=O)NS(C)(=O)=O)cc2F)cc1Br [Example 575, 4-(5-bromo-6-(2,4-dichloro-6-methylphenoxy)-3-pyridinyl)-2,5-difluoro-N-(methylsulfonyl)benzamide] | 7.37 | < 5.31 |  |  | 
COc1cc(C(=O)NS(C)(=O)=O)c(F)cc1-c1cnc(O[C@H](C)c2ccccc2)c(Cl)c1 [Example 696, 4-(5-chloro-6-((1R)-1-phenylethoxy)-3-pyridinyl)-2-fluoro-5-methoxy-N-(methylsulfonyl)benzamide, 4-(5-chloro-6-((1S)-1-phenylethoxy)-3-pyridinyl)-2-fluoro-5-methoxy-N-(methylsulfonyl)benzamide] | 7.03 | < 5.52 |  |  | 
COc1cc(C(=O)NS(C)(=O)=O)ccc1-c1cnc(OCc2ccc(Cl)cc2)c(Cl)c1 [Example 576, 4-(5-chloro-6-((4-chlorobenzyl)oxy)-3-pyridinyl)-3-methoxy-N-(methylsulfonyl)benzamide] | 7.15 |  | < 5.52 |  | 
COc1cc(C(=O)NS(C)(=O)=O)ccc1-c1cc(Cl)nc(Oc2cc(Cl)cc(Cl)c2)c1 [Example 803, 4-(2-chloro-6-(3,5-dichlorophenoxy)-4-pyridinyl)-3-methoxy-N-(methylsulfonyl)benzamide] |  |  |  | 7.04 | < 5.52
